# Like-named read-outs stand apart in the source and are kept apart here.
# Columns and labels:
# A2780 cells [1] = test system: A2780 cells; design: method as in PMID 30278332; conditions: literature value for AA; cited from earlier work
# MCF-7 cells [2] = test system: MCF-7 cells; design: method as in PMID 26974379; conditions: literature value for AA; cited from earlier work
# [3] = test system: human normal cell line (HUVEC); design: method as in PMID 25151580; conditions: literature value for AA; cited from earlier work
# [4] = test system: human ovarian (SKOV-3) cancer cell line; experiment: MTT cytotoxicity assay, SKOV-3; format: cell-based; conditions: Homo sapiens, SK-OV-3; MTT, 72 h, six concentrations, mean ± SD of three independent experiments
# Procedure: (§1) To establish a SAR of the C-3 (R2) and C-23 (R1) of the AA derivatives, new compounds were subjected to MTT assays to evaluate their in-vitro antiproliferative activities against ovarian (SKOV-3) and colon (HCT-116) cancer cell lines, the IC50 values (the concentration that inhibits 50% of cell growth) of which are summarized in Table 1. Doxorubicin was used as the positive drug.
# (§2) HCT116, SKOV-3, A549, A2780, HepG2, HL-60 and MCF-7 cells were incubated in DMEM with 10% heat-inactivated FBS in a humidified atmosphere of 5.0% CO2 at 37 °C. The in-vitro cytotoxicity of AA derivatives was determined using MTT assay. A 100-μL volume of culture medium at a concentration of 3 × 10^4 cell/mL was added to 96-well plate wells, which were maintained in a humidified atmosphere of 5.0% CO2 at 37 °C. After 24 h, 10 μL solution of AA derivatives and doxorubicin dissolved in DMSO and phophate buffered saline (PBS) and then diluted with DMEM under a concentration gradient, was added in the wells for final concentrations of 100, 10, 1, 0.1, 0.01, 0.001 μM of compounds in HCT116 and SKOV-3 cells and 125, 25, 5, 1, 0.2, 0.04 μM in A549, A2780, HepG2, HL-60 and MCF-7 cells. After 72 h incubation in a humidified atmosphere of 5.0% CO2 at 37 °C, 20 μl MTT solution (5 mg/mL) was added into each well and the cells were incubated. After 4 h, 100 μL HCl aqueous solution (0.01 M) with 10% SDS and 5% isobutanol was added into each well to dissolve the precipitated formazan and the absorbance was read at 570 nm on Thermo Scientific Varioskan Flash plate reader. All IC50 values were averaged from three independent experiments.
# A549 cells [5] = test system: A549 cells; design: method as in PMID 31057738; conditions: literature value for AA; cited from earlier work
# HepG2 cells [6] = test system: HepG2 cells; design: method as in PMID 31057738; conditions: literature value for AA; cited from earlier work
# [7] = test system: human colon (HCT-116) cancer cell line; experiment: MTT cytotoxicity assay, HCT116; format: cell-based; conditions: for IC50: Homo sapiens, HCT-116, MTT, 72 h, six concentrations, mean ± SD of three independent experiments
# Procedure: as §1, §2
# HepG2 cells [8] = experiment: MTT cytotoxicity assay, HepG2; format: cell-based; conditions: Homo sapiens, 72 h, mean ± SD of three independent experiments
# Procedure: as §2
# A2780 cells [9] = experiment: MTT cytotoxicity assay, A2780; format: cell-based; conditions: Homo sapiens, 72 h, mean ± SD of three independent experiments
# Procedure: as §2
# [10] = test system: human normal cell line (HUVEC); experiment: CCK-8 cytotoxicity assay, human normal cell line HUVEC; format: cell-based; conditions: for cytotoxic effect on HUVEC cell viability: CCK-8, concentrations of 125, 25, 5, 1, 0.2, 0.04 μM, 72 h; for IC50: HUVEC, CCK-8, 72 h, human normal cell line
# Procedure: Additionally, the cytotoxic activities of compounds 10, 14j and 14k were evaluated against one human normal cell line (HUVEC) using CCK-8 assay (Table 3).
# HUVEC cell lines were incubated in DMEM with 10% heat-inactivated FBS in a humidified atmosphere of 5.0% CO2 at 37 °C. The in-vitro cytotoxicity of AA derivatives was determined using CCK-8. A 100-μL volume of culture medium at a concentration of 3 × 10^4 cell/mL was added to 96-well plate wells, and these were maintained in a humidified atmosphere of 5.0% CO2 at 37 °C. After 24 h, 10 μL solution of AA derivatives dissolved in DMSO and PBS and then diluted with DMEM under a concentration gradient was added to the wells for final concentrations of 125, 25, 5, 1, 0.2, 0.04 μM. After 72 h incubation in a humidified atmosphere of 5.0% CO2 at 37 °C, 10 μl CCK-8 solution was added into each well and the cells were incubated for another 1 h, and the absorbance was read at 450 nm. All cell viability levels were averaged from three independent experiments.
# MCF-7 cells [11] = experiment: MTT cytotoxicity assay, MCF-7; format: cell-based; conditions: Homo sapiens, MCF7, 72 h, mean ± SD of three independent experiments
# Procedure: as §2
# HL-60 cells = experiment: MTT cytotoxicity assay, HL-60; format: cell-based; conditions: Homo sapiens, 72 h, mean ± SD of three independent experiments
# Procedure: as §2
# A549 cells [12] = experiment: MTT cytotoxicity assay, A549; format: cell-based; conditions: Homo sapiens, 72 h, mean ± SD of three independent experiments
# Procedure: as §2
# [13] = test system: human ovarian cancer cells (A2780); design: method as in PMID 27416552, PMID 24268794; conditions: read-out: EC50 against human ovarian cancer cells (A2780); cited from earlier work
structure (smiles),measurement,setting,value
"C[C@H]1[C@H](C)CC[C@]2(C(=O)O)CC[C@]3(C)C(=CC[C@@H]4[C@@]5(C)C[C@@H](O)[C@H](O)[C@@](C)(CO)[C@@H]5CC[C@]43C)[C@H]12 [AA, 2α,3β,23-trihydroxyurs-12-ene-28-oic acid]",IC50,A2780 cells [1],28.2 ± 0.3 µM
same,IC50,MCF-7 cells [2],68.5 ± 2.5 µM
same,IC50,[3],> 100 µM
same,IC50,[4],20.5 ± 4.06 µM
same,IC50,A549 cells [5],41 ± 0.87 µM
same,IC50,HepG2 cells [6],35.4 ± 1.47 µM
same,IC50,[7],24.6 ± 3.26 µM
"COC(=O)[C@@]1(C)[C@@H]2CC[C@]3(C)[C@H](CC=C4[C@@H]5[C@@H](C)[C@H](C)CC[C@]5(C(=O)NCc5ccccc5)CC[C@]43C)[C@@]2(C)C[C@@H](OC)[C@@H]1OC(C)=O [Compound 10, α-Methoxy-3β-Acetoxy-Urs-12-Ene-28-Benzylamide-23-Methyl Ester]",IC50,HepG2 cells [8],1.43 ± 0.32 µM
same,IC50,A2780 cells [9],1.28 ± 0.32 µM
same,cytotoxic effect on HUVEC cell viability,[10],no cytotoxic effect
same,IC50,[10],> 125 µM
same,IC50,MCF-7 cells [11],3.99 ± 1.21 µM
same,IC50,HL-60 cells,0.47 ± 0.08 µM
same,IC50,[7],1.08 ± 0.66 µM
same,fold more active than AA against HCT116 cell line,[7]; relative to AA,23 fold
same,IC50,A549 cells [12],> 125 µM
"CO[C@@H]1C[C@@]2(C)[C@@H](CC[C@]3(C)[C@@H]2CC=C2[C@@H]4[C@@H](C)[C@H](C)CC[C@]4(C(=O)NCc4ccccc4)CC[C@]23C)[C@](C)(C(=O)N2CCN(C)CC2)[C@H]1O [Compound 13k, α-Methoxy-3β-Hydroxy-Urs-12-Ene-28-Benzylamide-23-(4-Methyl-1-Piperazinyl)-Amide]",IC50,HepG2 cells [8],2.22 ± 0.68 µM
same,IC50,A2780 cells [9],13 ± 1.18 µM
same,IC50,MCF-7 cells [11],2.85 ± 0.25 µM
same,IC50,HL-60 cells,10.7 ± 2.08 µM
same,IC50,A549 cells [12],5.7 ± 0.58 µM
"CCOC(=O)CCCNC(=O)[C@@]1(C)[C@@H]2CC[C@]3(C)[C@H](CC=C4[C@@H]5[C@@H](C)[C@H](C)CC[C@]5(C(=O)NCc5ccccc5)CC[C@]43C)[C@@]2(C)C[C@@H](OC)[C@@H]1OC(C)=O [Compound 14i, N-(2α-Methoxy-3β-Acetoxy-Urs-12-Ene-28-Benzylamide-23-Oyl)-4-Aminobutyric Ethyl Ester]",IC50,[4],> 100 µM
same,IC50,[7],> 100 µM
"CO[C@@H]1C[C@@]2(C)[C@@H](CC[C@]3(C)[C@@H]2CC=C2[C@@H]4[C@@H](C)[C@H](C)CC[C@]4(C(=O)NCc4ccccc4)CC[C@]23C)[C@](C)(C(=O)N(C)C)[C@H]1OC(C)=O [Compound 14j, α-Methoxy-3β-Acetoxy-Urs-12-Ene-28-Benzyl Amide-23-Dimethylamide]",IC50,HepG2 cells [8],3.77 ± 1.22 µM
same,IC50,A2780 cells [9],2.24 ± 0.52 µM
same,cytotoxic effect on HUVEC cell viability,[10],no cytotoxic effect
same,IC50,[10],> 125 µM
same,IC50,MCF-7 cells [11],5.89 ± 1.33 µM
same,IC50,HL-60 cells,3.01 ± 0.44 µM
same,IC50,[7],1.83 ± 0.91 µM
same,IC50,A549 cells [12],6.72 ± 0.64 µM
"CO[C@@H]1C[C@@]2(C)[C@@H](CC[C@]3(C)[C@@H]2CC=C2[C@@H]4[C@@H](C)[C@H](C)CC[C@]4(C(=O)NCc4ccccc4)CC[C@]23C)[C@](C)(C(=O)N2CCN(C)CC2)[C@H]1OC(C)=O [Compound 14k, α-Methoxy-3β-Acetoxy-Urs-12-Ene-28-Benzylamide-23-(4-Methyl-1-Piperazinyl)-Amide]",IC50,HepG2 cells [8],2.84 ± 0.46 µM
same,IC50,A2780 cells [9],4.31 ± 0.58 µM
same,cytotoxic effect on HUVEC cell viability,[10],no cytotoxic effect
same,IC50,[10],> 125 µM
same,IC50,MCF-7 cells [11],1.78 ± 0.38 µM
same,IC50,HL-60 cells,3.36 ± 0.66 µM
same,IC50,A549 cells [12],4.04 ± 0.51 µM
"COc1cccc2c1C(=O)c1c(O)c3c(c(O)c1C2=O)C[C@@](O)(C(=O)CO)C[C@@H]3O[C@H]1C[C@H](N)[C@H](O)[C@H](C)O1 [Doxorubicin, reference compound]",IC50,[4],0.08 ± 0.01 µM
same,IC50,[7],0.03 ± 0.02 µM
CC(=O)O[C@@H]1C[C@]2(C)[C@H]3CC=C4[C@@H]5CC(C)(C)CC[C@]5(C(=O)NCc5ccccc5)CC[C@@]4(C)[C@]3(C)CC[C@H]2C(C)(C)[C@H]1OC(C)=O [EM2],EC50,[13],0.5 µM
